Data on 2 molecules can be found in patent US20130122113A1, “ANTITUMORAL COMBINATION COMPRISING OMBRABULIN, A TAXANE DERIVATIVE AND A PLATINUM DERIVATIVE” (SANOFI, priority 2010, published 2013).

Data set [1] is described as follows: Phase I dose escalation study of ombrabulin with platinum salts and taxanes every 3 weeks: DLT, MAD, RD, TEAE. Type of data set: in vivo, patients. As for the experimental part:
Dose Limiting Toxicity (DLT) at cycle 1.
Two groups of patients will be treated: one with docetaxel-cisplatin doublet (group 1) and the second with paclitaxel-carboplatin doublet (group 2), both in combination with ombrabulin.
The combination will be started with the following schedule (schedule A) for group 1:
Day 1: ombrabulin as a 30 minutes i.v. infusion immediately followed by 120 minutes i.v. infusion of cisplatin, and
Day 2: docetaxel administered as a 60 minutes i.v. infusion 24 hours apart ombrabulin infusion end and for the first 4 dose levels (I, II, III, IV).
Cohorts of 3 or 6 patients will receive escalating doses of ombrabulin (15.5, 20 and 25 mg/m^2) with a fixed dose of cisplatin at 75 mg/m^2 on Day 1, followed by docetaxel on Day 2, given either at 60 mg/m^2 for the ombrabulin doses of 15.5 and 20 mg/m^2 or at 75 mg/m^2 for the ombrabulin doses of 20 and 25 mg/m^2.
Taking into consideration the recommended dose of the combination ombrabulin and cisplatin administered the same day (25 mg/m^2 and 75 mg/m^2 respectively) every 3 weeks, after dose level IV, even if MAD not reached at this dose level, dose escalation of ombrabulin will be stopped and the combination will be administered with the following schedule (schedule B) in the 2 groups:
Day 1: ombrabulin as a 30 minutes i.v. infusion, and
Group 1: docetaxel administered as a 60 minutes i.v. infusion followed by cisplatin as a 120 minutes i.v. infusion, 24 hours apart ombrabulin infusion end.
Group 2: paclitaxel administered as a 180 minutes i.v. infusion followed by carboplatin as a 30 minutes i.v. infusion, 24 hours apart ombrabulin infusion end.
Cohorts of 3 or 6 patients will be screened and treated at each dose level. When the first three patients of a cohort have completed the first cycle, i.e. should have received at least one treatment course and should have been observed for acute toxicity for at least a 3-week follow-up period (or shorter period provided that a DLT has been observed), dose escalation strategy will be as follows: […]

A short description of another data set: clinical. As for the experimental part: Blood samples for pharmacokinetic analysis were obtained from all patients on Day 1, 2 and 3 at Cycle 1.
A series of 2-mL blood samples were collected in heparinized (lithium heparinate) tubes as follows: • immediately prior to the end of infusion; • at 5, 10, 25, 45 and 60 minutes post infusion; • at 2, 4, 6, 8, 10 and 24 hours post infusion (i.e a total of 24 mL of blood).

The conditions of data set [2]: cited from earlier work.
Where [3] appears, read: ombrabulin 15.5 mg/m^2, 3 patients, cycle 1, mean (CV).
[4] abbreviates: ombrabulin 20 mg/m^2, 26 patients, cycle 1, mean (CV).
Setting [5] is: ombrabulin 25 mg/m^2, 12 patients, cycle 1, mean (CV).
The mark [6] stands for this setting: ombrabulin 30 mg/m^2, 6 patients, cycle 1, mean (CV).
Where [7] appears, read: ombrabulin 35 mg/m^2, 5 patients, cycle 1, mean (CV).
Setting [8] is: ombrabulin, Overall (15.5-35 mg/m^2), 52 patients, cycle 1, mean (CV).
[9] abbreviates: ombrabulin, Overall (15.5-35 mg/m^2), 52 patients, cycle 1, mean (CV), listed as Ombrabulin.

`COc1ccc(/C=C\c2cc(OC)c(OC)c(OC)c2)cc1NC(=O)[C@@H](N)CO` [ombrabulin, (Z)-N-[2-methoxy-5-[2-(3,4,5-trimethoxyphenyl)vinyl]phenyl]-L-serinamide]: the maximum administered dose in data set [1] (Cohort II: Ob d1, C75/D75 d2, 19 pts) was 35 mg/m^2; in data set [1] (Cohort III: Ob d1, CbAUC5/P175 d2, 18 pts), 35 mg/m^2; in data set [1] (Cohort IV: Ob d1, CbAUC6/P200 d2, 19 pts), 35 mg/m^2. The AUC (usually concentration integrated over time) is 276 ng·h/mL in the data set “clinical” (human, in vivo, 15.5 mg/m2); 353 ng·h/mL in the data set “clinical” (human, in vivo, 20 mg/m2); 383 ng·h/mL in “clinical” (human, in vivo, 25 mg/m2); 510 ng·h/mL in “clinical” (human, in vivo, 30 mg/m2); 493 ng·h/mL in the data set “clinical” (human, in vivo, 35 mg/m2). Also, the AUC(0-t) (in general, exposure summed from dosing to a finite time, without extrapolation to infinity) amounted to 274 ng·h/mL in the data set “clinical” (human, in vivo, 15.5 mg/m2); 351 ng·h/mL in “clinical” (human, in vivo, 20 mg/m2); 381 ng·h/mL in the data set “clinical” (human, in vivo, 25 mg/m2); 508 ng·h/mL in the data set “clinical” (human, in vivo, 30 mg/m2); 491 ng·h/mL in “clinical” (human, in vivo, 35 mg/m2). Besides, the Cmax (commonly the peak of the concentration-time curve) was found to be 712 ng/mL in “clinical” (human, in vivo, 15.5 mg/m2); 861 ng/mL in “clinical” (human, in vivo, 20 mg/m2); 973 ng/mL in the data set “clinical” (human, in vivo, 25 mg/m2); 1170 ng/mL in the data set “clinical” (human, in vivo, 30 mg/m2); 1270 ng/mL in the data set “clinical” (human, in vivo, 35 mg/m2). The Tmax (as a rule, the time from dosing to the highest level) in “clinical” (human, in vivo, 15.5 mg/m2) turned out to be 28.8 min; in the data set “clinical” (human, in vivo, 20 mg/m2), 28.8 min; in “clinical” (human, in vivo, 25 mg/m2) it was 29.4 min; in “clinical” (human, in vivo, 30 mg/m2), 32.4 min; in “clinical” (human, in vivo, 35 mg/m2), 30 min. The half-life (commonly the time needed for the level to fall by half in the phase considered) in “clinical” (human, in vivo, t1/2Z (terminal elimination half-life), ombrabulin, Overall (15.5-35 mg/m^2), 52 patients, cycle 1, mean (CV)) was determined as 17 min. Moreover, the “conversion to its active metabolite” value in “clinical” (in patients after i.v. infusion) was “rapidly converted”. In addition, the Vss was 18.2 (32) L/m^2 in the data set “clinical” (setting [3]); 22.0 (57) L/m^2 in “clinical” (setting [4]); 27.2 (76) L/m^2 in the data set “clinical” (setting [5]); 24.3 (37) L/m^2 in the data set “clinical” (setting [6]); 32.8 (78) L/m^2 in “clinical” (setting [7]); 25.0 (33) L/m^2 in the data set “clinical” (setting [8]). The same molecule had a Vss in “clinical” (setting [9]) of 25.0 L/m^2. For the same molecule, the t1/2Z in “clinical” (setting [3]) is reported as 20.9 (76) min; in the data set “clinical” (setting [4]), 17.7 (50) min; in the data set “clinical” (setting [5]) it was 15.3 (37) min; in “clinical” (setting [6]), 18.5 (65) min; in the data set “clinical” (setting [7]), 14.3 (28) min. For the same molecule, the CL in the data set “clinical” (setting [4]) is reported as 64.6 (42) L/h/m^2; in “clinical” (setting [5]), 80.1 (49) L/h/m^2; in the data set “clinical” (setting [6]) it was 63.4 (33) L/h/m^2; in the data set “clinical” (setting [7]), 95.7 (63) L/h/m^2; in the data set “clinical” (setting [8]) it was 72.9 (23) L/h/m^2; in the data set “clinical” (setting [9]) it was 72.9 L/h/m^2. The “t1/2Z (terminal elimination half-life)” value in “clinical” (setting [8]) is 17.3 (15) min. In addition, the “recommended dose in monotherapy” value in data set [2] (ombrabulin monotherapy) is 50 mg/m^2. For the same molecule, the “recommended dose of ombrabulin in combination with cisplatin” value in data set [2] (with cisplatin 75 mg/m^2 administered the same day, every 3 weeks) is reported as 25 mg/m^2. For the same molecule, the “recommended dose of ombrabulin in bi-therapy with docetaxel” value in data set [2] (with docetaxel 75 mg/m^2, on-going phase I trial) is given as 35 mg/m^2.

Consider `COc1ccc(/C=C\c2cc(OC)c(OC)c(OC)c2)cc1N` [ombrabulin metabolite, (Z)-1-(3-amino-4-methoxyphenyl)-2-(3,4,5-trimethoxyphenyl)ethene], for which, in the data set “clinical” (human, in vivo), the “Metabolite exposure relative to ombrabulin” value was “about 2 fold”.
